What was measured:
5-HT1A receptor = biological target: T1, 5-HT1A receptor (Homo sapiens, UniProt P08908); assay: FLIPR Ca2+ flux agonist assay at 5-HT1A (CHO cells); format: cell-based
T1 construct: host or cells: CHO cells
T1 sequence (P08908 1-422): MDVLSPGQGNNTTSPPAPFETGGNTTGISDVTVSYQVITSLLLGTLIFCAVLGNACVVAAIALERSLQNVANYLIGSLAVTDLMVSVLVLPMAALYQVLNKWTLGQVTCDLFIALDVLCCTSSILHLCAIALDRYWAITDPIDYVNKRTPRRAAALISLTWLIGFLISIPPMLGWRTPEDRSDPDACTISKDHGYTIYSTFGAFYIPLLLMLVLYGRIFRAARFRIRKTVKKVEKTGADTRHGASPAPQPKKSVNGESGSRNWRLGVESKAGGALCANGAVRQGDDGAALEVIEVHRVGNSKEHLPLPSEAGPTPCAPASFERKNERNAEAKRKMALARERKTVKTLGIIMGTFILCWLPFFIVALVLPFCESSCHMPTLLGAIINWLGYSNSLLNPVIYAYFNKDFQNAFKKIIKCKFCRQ
Method: A solution of 250 mM probenecid in 1 mL FLIPR assay buffer was prepared fresh. This was combined with a fluorescent dye (Fluo-4 Direct™) to make a final assay concentration of 2.5 mM. […] The fluorescent dye was then added to the assay plate along with assay buffer to a final volume of 40 μL. The cell plate was incubated for 50 min at 37° C. and 5% CO2 and placed into the FLIPR Tetra along with the compound plate. 10 μL of references and compounds were then transferred from the compound plate into the cell plate and the fluorescent signal was read.

human 5-HT2C receptor = biological target: T2, human 5-HT2C receptor (Homo sapiens, UniProt P28335); assay: cell-based; conditions: Ca2+ flux, agonist mode
T2 sequence (P28335 33-458): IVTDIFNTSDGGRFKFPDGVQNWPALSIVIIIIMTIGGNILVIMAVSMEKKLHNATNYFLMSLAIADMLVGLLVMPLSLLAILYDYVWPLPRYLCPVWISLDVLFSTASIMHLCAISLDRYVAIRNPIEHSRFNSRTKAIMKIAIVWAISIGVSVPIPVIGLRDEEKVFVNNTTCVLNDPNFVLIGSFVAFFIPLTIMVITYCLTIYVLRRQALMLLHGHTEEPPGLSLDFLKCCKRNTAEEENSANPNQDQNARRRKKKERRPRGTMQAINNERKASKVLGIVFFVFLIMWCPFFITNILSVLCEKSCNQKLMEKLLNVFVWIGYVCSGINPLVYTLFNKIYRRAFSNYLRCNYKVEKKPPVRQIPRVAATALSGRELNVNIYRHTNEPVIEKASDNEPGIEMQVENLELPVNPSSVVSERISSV

[1] = Metabolic stability in human liver microsomes (HLM)
C57BL/6 mice = assay: Head twitch response (HTR) in mice; format: in vivo, mouse; conditions: SC
[2] = Stability in rat brain homogenate
Sprague Dawley rats = assay: Forced swim test (FST) in rats; format: in vivo, rat; conditions: SC
Method: These effects on swimming were stronger than those induced by the control antidepressant desipramine.
Animals. Male Sprague Dawley rats, aged 8-10 weeks, were used in the experiments. Animals were housed in groups of 2 under controlled temperature (22±3° C.) and relative humidity (30-70%) conditions, with 12-hour light/dark cycles, and with ad libitum food and water. These studies were carried out in strict accordance with the requirements of the Committee for the Purpose of Control and Supervision of Experiments on Animals (CPCSEA), India. All efforts were made to minimize suffering.
Drugs and Drug Administration. Compound 2 was prepared as described above. All other compounds were commercially obtained. Test compounds, saline vehicle, and the positive control desipramine were administered subcutaneously (SC), with doses calculated based on the free base. […] All compounds were administered at a volume of 5 mL/kg. Test compounds and vehicle were administered 0.5 h after the start of the training swim (Swim 1) and 23.5 h before the test swim (Swim 2). Desipramine was administered 3 times, at 23.5 h, 5 h, and 1 h before the test swim (Swim 2), each time at a dose of 20 mg/kg.
Forced Swim Test (FST). […] Group size was N=10 per treatment, except for the vehicle and desipramine groups, which were N=20. Rats were handled for about 2 min daily for the 5 days prior to the beginning of the experimental procedure. On the first day of the experiment (i.e., Day 0), post randomization, training swim sessions (Swim 1) were conducted between 12:00 and 18:00 h with all animals by placing rats in individual glass cylinders (46 cm tall×20 cm in diameter) containing 23-25° C. water 30 cm deep for 15 minutes. At the conclusion of Swim 1, animals were dried with paper towels, placed in heated drying cages for 15 minutes, and then returned to their home cages. […]
Behavioral scoring was conducted by observers who were blind to the treatment groups. Animals were continuously observed during Swim 2 and the total time spent engaging in the following behaviors was recorded: immobile, swimming, and climbing. […]

[3] = both, human, pooled human liver microsomes, pH 7.4
[4] = single dose 23.5 h before test swim, vs vehicle

## Oc1cccc2[nH]cc(CCN3CCC3)c12 [Compound 2, 3-(2-(azetidin-1-yl)ethyl)-1H-indol-4-ol]
5-HT1A receptor
  EC50: 1030 nM
5-HT1A receptor; Ca2+ flux, agonist mode, CHO cells
  5-HT1A % Act @ Max Dose: 102%
Human 5-HT2C receptor
  5-HT2C % Act @ Max Dose: 48.4%
  EC50: 279 nM
[1]; [3]
  half-life at 1 μM: > 2.42 h
  microsomal CLint at 1 μM: < 9.6 µL/min/mg
[1]; vs DMT, psilocin, 5-MeO-DMT respectively
  metabolic stability in HLM compared with dimethyl counterpart: greater metabolic stability
C57BL/6 mice; dose 0.1 mg/kg
  Average HTR Over 20-min Test: 4.667
C57BL/6 mice; dose 1 mg/kg
  Average HTR Over 20-min Test: 8.667
C57BL/6 mice; dose 10 mg/kg
  Average HTR Over 20-min Test: 9.000
[2]
  stability in rat brain homogenate (in words): good stability
[2]; male, Sprague Dawley, rat, rat brain homogenate
  half-life at 1 μM: 2.91 h
[2]; rat brain homogenate (male Sprague Dawley), 1 μM, 37° C., 120 min
  % Compound Remaining (after 120 min): 56.8%
Sprague Dawley rats; 23.5 h pre-treatment, lowest dose tested
  dose with significant effect on immobility in the FST: ≤ 0.1 mg/kg
Sprague Dawley rats; [4]
  immobility time in the FST: reduced immobility time
  swimming time in the FST: significant increases in swimming
